According to patent US20230413808A1, “Bioactive complexes” (priority 2020, published 2023):

Tests used:
Format in all cases: physicochemical
[1] = Visual interaction of active ingredient with polyelectrolyte PAA
Procedure: (§1) To determine interaction between polyelectrolytes (PE; Table 1) and active ingredients (AI; Table 2) aqueous stock solutions of about 200 g/L of the PE and of the active ingredients were prepared. The polyelectrolytes were diluted in water and stirred on magnetic stirrer for at least 30 minutes until a homogenous clear solution was obtained (ratios and amounts are presented in Table 4). The active ingredients were dissolved in water on magnetic stirrer or, if they weren't water soluble, suspended in water and milled by adding glass beads (1 mm) in a stainless steel metal beaker until they reach a volume-based average particle size below 20 μm (90% of particles below 20 μm), as determined by laser diffraction. After that the mixture was filtered with a sieve to remove glass beads and the filtrate was used for further analysis.
(§2) A polyelectrolyte solution, PAA or chitosan, was added to a 100-150 mL glass beaker, followed by water and an active ingredient solution/suspension. The mixture was stirred for at least 4 hours, and samples were observed after at least 16 hours. The visual observable interactions were divided into five categories (see Table 3). The categories were chosen by comparison to a blank sample containing the same concentration of active ingredient in water but without polyelectrolyte. […] Interactions were studied over a large range of active ingredient to polyelectrolyte ratios, including 10.000:1 (w/w), 1000:1 (w/w), 100:1 (w/w), 10:1 (w/w), 1:1 (w/w), 1:10 (w/w), 1:100 (w/w) and 1:1000) (w/w).

[2] = Visual interaction with polyanion sodium lignosulfonate; conditions: visible complex formation
[3] = Visual interaction of active ingredient with chitosan; design: key to Visual observation category, Active ingredient: chitosan: P: Formation of a precipitate; G: Formation of a gel; C: Formation of a coacervate; V: Increase/decrease of the sediment volume; S: Decrease of solid by increase of solved active ingredient; No visual observable interaction
Procedure: as §1, §2

Humectancy assay = conditions: dried at 54° C., then 97% relative humidity at 25° C.; weight after/before x 100
Procedure: The complexes of the interaction assay were used to conduct a humectancy assay. […] After reweighing on an analytical balance, the trays were placed in a climate chamber and stored for at least 2 days at 54° C. or until no further weight change was observed. […] The air tight box was 20 cm×12 cm×7 cm. In the box a chicken wire construct was used to create two levels with 10-20 ml of saturated solution of dipotassium sulfate in a petri dish in a lower level, and the samples in an upper level. Boxes were located into an incubator at 25° C. The boxes were incubated for at least 5 days at 25° C. before use to allow equilibration of temperature and humidity. Hereafter, the trays were reweighed.
The change in humectancy by combining a pesticide and polyelectrolyte is expressed as percent value by multiplying the sample weight after incubation (w2) with 100 divided with the sample weight before incubation (w1) using the following equation: […]
To evaluate the effect of the interaction of the active ingredient and polyelectrolyte on humectancy (synergetic/antagonistic/no effect), the determined Humectancy of the samples containing both active ingredient and polyelectrolyte “Humectancy (blend)” was divided by the theoretical value of Humectancy of the blend provided by respective proportion (% AI; % PE) of each pesticide and polyelectrolyte using the following equation: […]
According to this formula, a positive result of more than 1 is indicative of synergy.
The complexes obtained with the method of WO2010035118, with both ratios of 2:1 and 1:5 (PAA:AI) were tested for humectancy. […] For each sample, the test was carried in triplicate.
For each sample, the test was carried in triplicate.

[4] = ratio active ingredient:PAA 1.000:1 (w/w)
[5] = ratio active ingredient:PAA 1:1 (w/w)
[6] = ratio active ingredient:PAA 1:10 (w/w)
[7] = ratio active ingredient:PAA 1:100 (w/w)
[8] = ratio active ingredient:PAA 1:1000 (w/w)
[9] = ratio active ingredient:PAA 10.000:1 (w/w)
[10] = ratio active ingredient:PAA 100:1 (w/w)
[11] = ratio active ingredient:chitosan 1.000:1 (w/w)
[12] = ratio active ingredient:chitosan 1:1 (w/w)
[13] = ratio active ingredient:chitosan 1:10 (w/w)
[14] = ratio active ingredient:chitosan 1:100 (w/w)
[15] = ratio active ingredient:chitosan 2:1 (w/w)
[16] = ratio active ingredient:chitosan 5:1 (w/w)
[17] = ratio active ingredient:chitosan 10.000:1 (w/w)
[18] = ratio active ingredient:chitosan 10:1 (w/w)
[19] = ratio active ingredient:chitosan 100:1 (w/w)

Row | Structure (SMILES) | Visual observation category, Active ingredient: PAA [1, 4] | Visual observation category, Active ingredient: PAA [1, 6] | Visual observation category, Active ingredient: PAA [1, 7] | Visual observation category, Active ingredient: PAA [1, 8] | Visual observation category, Active ingredient: PAA [1, 9] | Visual observation category, Active ingredient: PAA [1, 10] | Interaction with the polyanion sodium lignosulfonate [2] | Humectancy (Humectancy assay) [%] | further results
1 | O=C(O)[C@@H]1CCCN1 [Proline] | N | N | N | N | N | N | – | – | Visual observation category, Active ingredient: PAA [1, 5]: N; Visual observation category, Active ingredient: PAA ([1]; ratio active ingredient:PAA 10:1 (w/w)): N
2 | O=C1c2ccccc2C(=O)N1SC(Cl)(Cl)Cl [folpet, N-(trichloromethylthio)phthalimide] | – | – | – | – | – | – | – | – | Interaction with the polycation PAA [1]: interacts over a large range of ratio's
3 | O=[PH]([O-])[O-].[Na+].[Na+] [Na2HPO3] | N | N | N | – | N | N | did not form a visible complex | – | –
4 | O=C(O)COc1ccc(Cl)cc1Cl [2,4D, 2-(2,4-dichlorophenoxy)acetic acid] | – | – | – | N | N | – | did not form a visible complex | 212.7 | Visual observation category, Active ingredient: PAA [1, 5]: G/P; Visual observation category, Active ingredient: chitosan [3, 11]: N; Visual observation category, Active ingredient: chitosan [3, 12]: P; Visual observation category, Active ingredient: chitosan [3, 13]: N; Visual observation category, Active ingredient: chitosan [3, 14]: N; Visual observation category, Active ingredient: chitosan [3, 15]: P; Visual observation category, Active ingredient: chitosan [3, 16]: P; Visual observation category, Active ingredient: chitosan [3, 17]: N; Visual observation category, Active ingredient: chitosan [3, 18]: P; Visual observation category, Active ingredient: chitosan [3, 19]: P
5 | C[C@@H]1C/C=C/C=C/C=C/C=C/[C@H](O[C@@H]2O[C@H](C)[C@@H](O)[C@H](N)[C@@H]2O)C[C@@H]2O[C@](O)(C[C@@H](O)C[C@H]3O[C@@H]3/C=C/C(=O)O1)C[C@H](O)[C@H]2C(=O)O [Natamycin, (1R,3S,5R,7R,8E,12R,14E,16E,18E,20E,22R,24S,25R,26S)-22-[(2R,3S,4S,5S,6R)-4-amino-3,5-dihydroxy-6-methyloxan-2-yl]oxy-1,3,26-trihydroxy-12-methyl-10-oxo-6,11,28-trioxatricyclo[22.3.1.05,7]octacosa-8,14,16,18,20-pentaene-25-carboxylic acid] | N | N | N | – | – | – | – | – | Interaction with chitosan [3]: interact
6 | O=[N+]([O-])/N=C1\NCCN1Cc1ccc(Cl)nc1 [Imidacloprid, (NE)-N-[1-[(6-chloropyridin-3-yl)methyl]imidazolidin-2-ylidene]nitramide] | – | N | N | – | N | – | – | 108.4 | Visual observation category, Active ingredient: PAA [1, 5]: N; Visual observation category, Active ingredient: PAA ([1]; ratio active ingredient:PAA 2:1 (w/w)): N; Visual observation category, Active ingredient: PAA ([1]; ratio active ingredient:PAA 5:1 (w/w)): No
7 | CCCCCCCCC(=O)O [Pelargonic acid, nonanoic acid] | – | – | N | N | N | – | did not form a visible complex | – | –
8 | CCO[PH](=O)O [Fosetyl Al] | – | N | N | N | – | – | – | 137.0 | Ratios at which active ingredient interacted (w/w; active ingredient:polycation) ([1]; summary of Table 4): from 10.000:1 to 1:1
9 | CNC(=N[N+](=O)[O-])NCc1cnc(Cl)s1 [Clothianidin, 1-[(2-chloro-1,3-thiazol-5-yl)methyl]-3-methyl-2-nitroguanidine] | – | N | N | N | N | – | – | 120.0 | –
10 | N.N.O=[PH](O)O [(NH4)2HPO3] | N | N | N | – | N | N | did not form a visible complex | – | –
11 | COc1c(Cl)ccc(Cl)c1C(=O)O [Dicamba, 3,6-dichloro-2-methoxybenzoic acid] | – | N | N | – | – | – | did not form a visible complex | – | Visual observation category, Active ingredient: PAA ([1]; ratio active ingredient:PAA 100.000:1 (w/w)): N; Visual observation category, Active ingredient: chitosan [3, 11]: P; Visual observation category, Active ingredient: chitosan [3, 12]: N; Visual observation category, Active ingredient: chitosan [3, 13]: N; Visual observation category, Active ingredient: chitosan [3, 14]: N; Visual observation category, Active ingredient: chitosan [3, 15]: N; Visual observation category, Active ingredient: chitosan [3, 16]: P; Visual observation category, Active ingredient: chitosan [3, 17]: N; Visual observation category, Active ingredient: chitosan [3, 18]: P; Visual observation category, Active ingredient: chitosan [3, 19]: P
12 | O=[PH]([O-])[O-].[K+].[K+] [K2HPO3] | N | N | N | – | N | N | did not form a visible complex | – | –
